Data published in article PMC11767077, “Experimental Validation of Antiobesogenic and Osteoprotective Efficacy of Ginsenoside CK via Targeting Lipid and Atherosclerosis Pathways” (Life, 2024).
In brackets after ≈: the same amount, converted by molar mass.

Target: α-glucosidase
Assay: p-NPG colorimetric enzyme assay, […] nm, commercial α-glucosidase
Type: biochemical

Question: How did the IC50 turn out when `CC(C)=CCC[C@](C)(O[C@@H]1O[C@H](CO)[C@@H](O)[C@H](O)[C@H]1O)[C@H]1CC[C@]2(C)[C@@H]1[C@H](O)C[C@@H]1[C@@]3(C)CC[C@H](O)C(C)(C)[C@@H]3CC[C@]12C` [CK, ginsenoside CK] was run?
Answer: Its IC50 is 22.83 µg/mL (≈ 36.7 µM).
